The structures appear in SMILES notation. Some results are limits rather than exact numbers.

In the assay the target is JAK1 (Homo sapiens (Human), UniProt P23458). As to the kind of experiment: Analysis of JAK1 activity inhibition ability (ADP-Glo Kinase Assay). The format is biochemical. Conditions: JAK1 enzyme, ADP-Glo luminescence, ATP 250 uM, IRS-itide substrate, 30° C. 40 minutes; read-out: IC50. The gist of the method: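 JAK1 enzyme, IRS-itide substrate (40 ng/mL) and 250 uM ATP, both as prepared in kinase buffer (Tris-HCl pH 7.5, MgCl2, BSA, DTT), reacted with compound 40 min at 30 °C. ADP formed was detected by ADP-Glo luminescence; IC50 is the concentration giving 50% inhibition versus control.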
In general terms: In ADP-Glo the light output rises with the ADP produced.

Sequence of JAK1 (P23458 whole entry): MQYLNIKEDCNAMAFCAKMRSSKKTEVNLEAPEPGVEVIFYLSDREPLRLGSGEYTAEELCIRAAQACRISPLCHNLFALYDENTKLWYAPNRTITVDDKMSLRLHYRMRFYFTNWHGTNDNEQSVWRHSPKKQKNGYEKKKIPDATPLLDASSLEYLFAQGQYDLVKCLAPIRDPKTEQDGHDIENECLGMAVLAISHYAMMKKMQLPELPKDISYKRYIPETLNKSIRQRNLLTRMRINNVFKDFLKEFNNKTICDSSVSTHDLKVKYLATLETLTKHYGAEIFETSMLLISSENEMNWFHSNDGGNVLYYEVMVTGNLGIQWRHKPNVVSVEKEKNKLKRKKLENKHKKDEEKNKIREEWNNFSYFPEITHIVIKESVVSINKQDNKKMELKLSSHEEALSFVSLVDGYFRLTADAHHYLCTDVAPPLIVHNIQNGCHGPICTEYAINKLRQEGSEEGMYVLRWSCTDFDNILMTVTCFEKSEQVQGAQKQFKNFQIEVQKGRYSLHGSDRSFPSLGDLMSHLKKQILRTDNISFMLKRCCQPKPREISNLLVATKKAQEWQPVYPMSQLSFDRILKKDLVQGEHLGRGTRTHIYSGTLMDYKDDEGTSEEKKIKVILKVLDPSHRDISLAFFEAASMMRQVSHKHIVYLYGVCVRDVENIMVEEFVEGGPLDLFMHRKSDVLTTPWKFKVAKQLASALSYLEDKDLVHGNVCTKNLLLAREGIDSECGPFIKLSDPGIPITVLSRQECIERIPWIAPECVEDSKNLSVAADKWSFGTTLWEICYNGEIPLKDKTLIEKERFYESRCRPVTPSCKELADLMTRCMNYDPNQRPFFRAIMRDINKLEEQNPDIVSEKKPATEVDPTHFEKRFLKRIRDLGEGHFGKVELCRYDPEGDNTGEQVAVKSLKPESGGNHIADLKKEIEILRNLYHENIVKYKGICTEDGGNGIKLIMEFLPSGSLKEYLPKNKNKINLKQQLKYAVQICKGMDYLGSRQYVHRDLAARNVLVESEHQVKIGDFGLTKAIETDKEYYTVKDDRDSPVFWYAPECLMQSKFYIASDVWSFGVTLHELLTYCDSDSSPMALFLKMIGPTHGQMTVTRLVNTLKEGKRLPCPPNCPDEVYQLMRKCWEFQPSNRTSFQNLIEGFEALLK

The term IC50 denotes the midpoint of a concentration-inhibition curve. With `CC1CN(C(=O)Cc2cccs2)CC=C1c1cc(NC(=O)C2CC2)nc2[nH]ccc12` (centres unmarked) [Example 345, N-(4-(3-methyl-1-(2-(thiophen-2-yl)acetyl)-1,2,3,6-tetrahydropyridin-4-yl)-1H-pyrrolo[2,3-b]pyridin-6-yl)cyclopropanecarboxamide], the IC50 lay in the range of 20 to 200 nM. The figure for `CC1CN(C(=O)Cc2cccc(F)c2)CC=C1c1cc(NC(=O)C2CC2)nc2[nH]ccc12` (centres unmarked) [Example 346, N-(4-(1-(2-(3-fluorophenyl)acetyl)-3-methyl-1,2,3,6-tetrahydropyridin-4-yl)-1H-pyrrolo[2,3-b]pyridin-6-yl)cyclopropanecarboxamide] is 20 to 200 nM; for `CC1CN(C(=O)Cc2cccc(Br)c2)CC=C1c1cc(NC(=O)C2CC2)nc2[nH]ccc12` (centres unmarked) [Example 347, N-(4-(1-(2-(3-bromophenyl)acetyl)-3-methyl-1,2,3,6-tetrahydropyridin-4-yl)-1H-pyrrolo[2,3-b]pyridin-6-yl)cyclopropanecarboxamide] it is 20 to 200 nM; for `CC1CN(C(=O)CCl)CC=C1c1cc(NC(=O)C2CC2)nc2[nH]ccc12` (centres unmarked) [Example 348, N-(4-(1-(2-chloroacetyl)-3-methyl-1,2,3,6-tetrahydropyridin-4-yl)-1H-pyrrolo[2,3-b]pyridin-6-yl)cyclopropanecarboxamide] it is 20 to 200 nM. With `CC1CN(C(=O)c2cccnc2Cl)CC=C1c1cc(NC(=O)C2CC2)nc2[nH]ccc12` (centres unmarked) [Example 349, N-(4-(1-(2-chloronicotinoyl)-3-methyl-1,2,3,6-tetrahydropyridin-4-yl)-1H-pyrrolo[2,3-b]pyridin-6-yl)cyclopropanecarboxamide], the IC50 was in the range of 20 to 200 nM. Turning to `CC1CN(C(=O)c2ccc(O)cc2)CC=C1c1cc(NC(=O)C2CC2)nc2[nH]ccc12` (centres unmarked) [Example 350, N-(4-(1-(4-hydroxybenzoyl)-3-methyl-1,2,3,6-tetrahydropyridin-4-yl)-1H-pyrrolo[2,3-b]pyridin-6-yl)cyclopropanecarboxamide], the IC50 lay in the range of 20 to 200 nM. With `CC1CN(C(=O)c2cc3ccccc3o2)CC=C1c1cc(NC(=O)C2CC2)nc2[nH]ccc12` (centres unmarked) [Example 352, N-(4-(1-(benzofuran-2-carbonyl)-3-methyl-1,2,3,6-tetrahydropyridin-4-yl)-1H-pyrrolo[2,3-b]pyridin-6-yl)cyclopropanecarboxamide], the IC50 fell in the range of 20 to 200 nM. Turning to `CC1CN(C(=O)c2ccc(Cl)c(Cl)c2)CC=C1c1cc(NC(=O)C2CC2)nc2[nH]ccc12` (centres unmarked) [Example 353, N-(4-(1-(3,4-dichlorobenzoyl)-3-methyl-1,2,3,6-tetrahydropyridin-4-yl)-1H-pyrrolo[2,3-b]pyridin-6-yl)cyclopropanecarboxamide], the IC50 lay in the range of 20 to 200 nM. On to `CC1CN(C(=O)c2ccc(S(C)(=O)=O)cc2)CC=C1c1cc(NC(=O)C2CC2)nc2[nH]ccc12` (centres unmarked) [Example 354, N-(4-(3-methyl-1-(4-(methylsulfonyl)benzoyl)-1,2,3,6-tetrahydropyridin-4-yl)-1H-pyrrolo[2,3-b]pyridin-6-yl)cyclopropanecarboxamide], for which the IC50 lay within 20 to 200 nM.

For the molecule `CC1CN(C(=O)c2ccc(F)cc2Cl)CC=C1c1cc(NC(=O)C2CC2)nc2[nH]ccc12` (centres unmarked) [Example 355, N-(4-(1-(2-chloro-4-fluorobenzoyl)-3-methyl-1,2,3,6-tetrahydropyridin-4-yl)-1H-pyrrolo[2,3-b]pyridin-6-yl)cyclopropanecarboxamide], the IC50 fell in the range of 20 to 200 nM. Turning to `COc1ccc(C(=O)N2CC=C(c3cc(NC(=O)C4CC4)nc4[nH]ccc34)C(C)C2)c(OC)c1` (centres unmarked) [Example 356, N-(4-(1-(2,4-dimethoxybenzoyl)-3-methyl-1,2,3,6-tetrahydropyridin-4-yl)-1H-pyrrolo[2,3-b]pyridin-6-yl)cyclopropanecarboxamide], the IC50 is > 200 nM.

Turning to `CSc1ccccc1C(=O)N1CC=C(c2cc(NC(=O)C3CC3)nc3[nH]ccc23)C(C)C1` (centres unmarked) [Example 357, N-(4-(3-methyl-1-(2-(methylthio)benzoyl)-1,2,3,6-tetrahydropyridin-4-yl)-1H-pyrrolo[2,3-b]pyridin-6-yl)cyclopropanecarboxamide], the IC50 lay within 20 to 200 nM.

On to `CC1CN(C(=O)c2cc(F)cc(F)c2)CC=C1c1cc(NC(=O)C2CC2)nc2[nH]ccc12` (centres unmarked) [Example 358, N-(4-(1-(3,5-difluorobenzoyl)-3-methyl-1,2,3,6-tetrahydropyridin-4-yl)-1H-pyrrolo[2,3-b]pyridin-6-yl)cyclopropanecarboxamide], for which the IC50 was 20 to 200 nM. Take `CC1CN(C(=O)C(C#N)Cc2ccc(F)cc2)CC=C1c1cc(NC(=O)C2CC2)nc2[nH]ccc12` (centres unmarked) [Example 359, N-(4-(1-(2-cyano-3-(4-fluorophenyl)propanoyl)-3-methyl-1,2,3,6-tetrahydropyridin-4-yl)-1H-pyrrolo[2,3-b]pyridin-6-yl)cyclopropanecarboxamide]: the IC50 lay within 20 to 200 nM. On to `CC1CN(C(=O)C(C#N)Cc2ccccc2)CC=C1c1cc(NC(=O)C2CC2)nc2[nH]ccc12` (centres unmarked) [Example 360, N-(4-(1-(2-cyano-3-phenylpropanoyl)-3-methyl-1,2,3,6-tetrahydropyridin-4-yl)-1H-pyrrolo[2,3-b]pyridin-6-yl)cyclopropanecarboxamide], for which the IC50 was 20 to 200 nM. Consider `CC1CN(C(=O)C2(C#N)CCCC2)CC=C1c1cc(NC(=O)C2CC2)nc2[nH]ccc12` (centres unmarked) [Example 361, N-(4-(1-(1-cyanocyclopentane-1-carbonyl)-3-methyl-1,2,3,6-tetrahydropyridin-4-yl)-1H-pyrrolo[2,3-b]pyridin-6-yl)cyclopropanecarboxamide], for which the IC50 is 20 to 200 nM. Consider `CC1CN(C(=O)CC(=O)N2CCOCC2)CC=C1c1cc(NC(=O)C2CC2)nc2[nH]ccc12` (centres unmarked) [Example 362, N-(4-(3-methyl-1-(3-morpholino-3-oxopropanoyl)-1,2,3,6-tetrahydropyridin-4-yl)-1H-pyrrolo[2,3-b]pyridin-6-yl)cyclopropanecarboxamide], for which the IC50 lay in the range of 20 to 200 nM. The figure for `CC1CC(c2cc(NC(=O)C3CC3)nc3[nH]ccc23)=CCN1C(=O)CC#N` (centres unmarked) [Example 363, N-(4-(1-(2-cyanoacetyl)-2-methyl-1,2,3,6-tetrahydropyridin-4-yl)-1H-pyrrolo[2,3-b]pyridin-6-yl)cyclopropanecarboxamide] is < 20 nM; for `CC1CN(C(=O)Cc2ccccc2)CC=C1c1cc(NC(=O)C2CC2)nc2[nH]ccc12` (centres unmarked) [Example 365, N-(4-(3-methyl-1-(2-phenylacetyl)-1,2,3,6-tetrahydropyridin-4-yl)-1H-pyrrolo[2,3-b]pyridin-6-yl)cyclopropanecarboxamide] it is 20 to 200 nM. `O=C(Nc1cc(C2=CC3CCCC(C2)N3C(=O)c2ccnc(F)c2)c2cc[nH]c2n1)C1CC1` (centres unmarked) [Example 366, N-(4-(9-(2-fluoroisonicotinoyl)-9-azabicyclo[3.3.1]non-2-en-3-yl)-1H-pyrrolo[2,3-b]pyridin-6-yl)cyclopropanecarboxamide]: the IC50 is < 20 nM.

`O=C(Nc1cc(C2=CC3CCCC(C2)N3C(=O)c2ccnc(Cl)c2)c2cc[nH]c2n1)C1CC1` (centres unmarked) [Example 367, N-(4-(9-(2-chloroisonicotinoyl)-9-azabicyclo[3.3.1]non-2-en-3-yl)-1H-pyrrolo[2,3-b]pyridin-6-yl)cyclopropanecarboxamide]: the IC50 is 20 to 200 nM. As to `O=C(Nc1cc(C2=CC3CCCC(C2)N3C(=O)c2ccc(Cl)nc2)c2cc[nH]c2n1)C1CC1` (centres unmarked) [Example 368, N-(4-(9-(6-chloronicotinoyl)-9-azabicyclo[3.3.1]non-2-en-3-yl)-1H-pyrrolo[2,3-b]pyridin-6-yl)cyclopropanecarboxamide], the IC50 is < 20 nM.

Turning to `O=C(Nc1cc(C2=CC3CCCC(C2)N3C(=O)c2ccncc2F)c2cc[nH]c2n1)C1CC1` (centres unmarked) [Example 369, N-(4-(9-(3-fluoroisonicotinoyl)-9-azabicyclo[3.3.1]non-2-en-3-yl)-1H-pyrrolo[2,3-b]pyridin-6-yl)cyclopropanecarboxamide], the IC50 is 20 to 200 nM. The result for `O=C(Nc1cc(C2=CC3CCCC(C2)N3C(=O)c2ccc([N+](=O)[O-])cc2)c2cc[nH]c2n1)C1CC1` (centres unmarked) [Example 370, N-(4-(9-(4-nitrobenzoyl)-9-azabicyclo[3.3.1]non-2-en-3-yl)-1H-pyrrolo[2,3-b]pyridin-6-yl)cyclopropanecarboxamide] reads 20 to 200 nM; that for `O=C(Nc1cc(C2=CC3CCCC(C2)N3C(=O)c2cccc(Br)c2)c2cc[nH]c2n1)C1CC1` (centres unmarked) [Example 371, N-(4-(9-(3-bromobenzoyl)-9-azabicyclo[3.3.1]non-2-en-3-yl)-1H-pyrrolo[2,3-b]pyridin-6-yl)cyclopropanecarboxamide], 20 to 200 nM; that for `CC1CN(C(=O)c2cc(Cl)nc(Cl)c2)CC=C1c1cc(NC(=O)C2CC2)nc2[nH]ccc12` (centres unmarked) [Example 372, N-(4-(1-(2,6-dichloroisonicotinoyl)-3-methyl-1,2,3,6-tetrahydropyridin-4-yl)-1H-pyrrolo[2,3-b]pyridin-6-yl)cyclopropanecarboxamide], 20 to 200 nM.

In the case of `CC1CN(C(=O)c2c(Cl)cncc2Cl)CC=C1c1cc(NC(=O)C2CC2)nc2[nH]ccc12` (centres unmarked) [Example 374, N-(4-(1-(3,5-dichloroisonicotinoyl)-3-methyl-1,2,3,6-tetrahydropyridin-4-yl)-1H-pyrrolo[2,3-b]pyridin-6-yl)cyclopropanecarboxamide], the IC50 lay within 20 to 200 nM. Take `Cc1cc(C(=O)N2CC=C(c3cc(NC(=O)C4CC4)nc4[nH]ccc34)C(C)C2)cc(Cl)n1` (centres unmarked) [Example 375, N-(4-(1-(2-chloro-6-methylisonicotinoyl)-3-methyl-1,2,3,6-tetrahydropyridin-4-yl)-1H-pyrrolo[2,3-b]pyridin-6-yl)cyclopropanecarboxamide]: the IC50 is 20 to 200 nM.

As to `CC1CN(C(=O)c2ccncc2Cl)CC=C1c1cc(NC(=O)C2CC2)nc2[nH]ccc12` (centres unmarked) [Example 376, N-(4-(1-(3-chloroisonicotinoyl)-3-methyl-1,2,3,6-tetrahydropyridin-4-yl)-1H-pyrrolo[2,3-b]pyridin-6-yl)cyclopropanecarboxamide], the IC50 was 20 to 200 nM.

These data come from US11524968B2, “Heterocyclic compound as a protein kinase inhibitor” (HK inno.N Corporation, priority 2017, dated 2022).
